pIC50: −log10 of the molar value. Calls of active or inactive are those of the source. The calls are words filed in the database; no cut-off is given here.
Legend:
[1] = molecular target: T1, Beta-secretase 1 (Homo sapiens, UniProt P56817)
[2] = molecular target: T2, Renin (Homo sapiens, UniProt P00797); test: Inhibition of renin
T2 sequence (P00797 whole entry): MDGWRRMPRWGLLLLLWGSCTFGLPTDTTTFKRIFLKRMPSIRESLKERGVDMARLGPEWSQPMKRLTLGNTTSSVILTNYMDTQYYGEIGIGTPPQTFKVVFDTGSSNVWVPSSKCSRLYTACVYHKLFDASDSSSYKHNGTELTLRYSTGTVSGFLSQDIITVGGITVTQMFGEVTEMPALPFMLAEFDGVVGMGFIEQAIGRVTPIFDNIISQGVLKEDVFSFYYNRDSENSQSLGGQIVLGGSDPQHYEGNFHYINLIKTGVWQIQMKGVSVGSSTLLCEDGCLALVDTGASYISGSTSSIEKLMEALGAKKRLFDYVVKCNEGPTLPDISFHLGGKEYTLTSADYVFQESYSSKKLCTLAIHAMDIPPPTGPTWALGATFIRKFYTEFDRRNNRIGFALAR

[3] = molecular target: T3, Beta-secretase 2 (Homo sapiens, UniProt Q9Y5Z0); test: (§1) Inhibition of BACE2
T3 sequence (Q9Y5Z0 whole entry): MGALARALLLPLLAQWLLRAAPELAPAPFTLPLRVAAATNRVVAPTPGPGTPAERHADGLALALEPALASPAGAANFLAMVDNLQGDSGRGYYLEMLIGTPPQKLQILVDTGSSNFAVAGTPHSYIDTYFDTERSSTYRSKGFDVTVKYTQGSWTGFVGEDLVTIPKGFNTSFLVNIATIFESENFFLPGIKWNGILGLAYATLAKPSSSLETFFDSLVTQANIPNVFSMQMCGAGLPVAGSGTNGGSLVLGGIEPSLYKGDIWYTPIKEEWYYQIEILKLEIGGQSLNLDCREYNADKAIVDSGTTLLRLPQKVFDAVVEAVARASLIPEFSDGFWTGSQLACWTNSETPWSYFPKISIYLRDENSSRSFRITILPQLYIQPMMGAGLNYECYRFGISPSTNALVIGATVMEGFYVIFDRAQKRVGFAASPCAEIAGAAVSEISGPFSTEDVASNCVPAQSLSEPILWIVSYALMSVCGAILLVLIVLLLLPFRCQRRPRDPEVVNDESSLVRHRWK

[4] = molecular target: T1, Beta-secretase 1; remark: listed apart in the source
[5] = molecular target: T4, Beta-secretase 2 (Homo sapiens) (UniProt Q9Y5Z0); test: as §1
T4 sequence (whole entry): T3 sequence (Q9Y5Z0 whole entry)

T1 sequence (P56817 whole entry): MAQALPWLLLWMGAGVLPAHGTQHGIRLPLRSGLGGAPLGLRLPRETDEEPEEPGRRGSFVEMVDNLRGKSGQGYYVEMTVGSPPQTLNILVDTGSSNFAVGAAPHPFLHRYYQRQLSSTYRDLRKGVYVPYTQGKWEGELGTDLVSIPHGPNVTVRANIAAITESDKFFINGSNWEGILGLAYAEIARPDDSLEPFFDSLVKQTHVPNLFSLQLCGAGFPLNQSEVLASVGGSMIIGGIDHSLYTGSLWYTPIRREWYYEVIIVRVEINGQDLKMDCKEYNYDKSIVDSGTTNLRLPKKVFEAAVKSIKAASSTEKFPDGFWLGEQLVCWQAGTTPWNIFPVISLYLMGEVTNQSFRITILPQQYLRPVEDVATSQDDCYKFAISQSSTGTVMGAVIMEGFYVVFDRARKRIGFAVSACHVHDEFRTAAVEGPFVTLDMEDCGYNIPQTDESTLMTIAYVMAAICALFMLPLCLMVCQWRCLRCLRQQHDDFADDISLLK

Row | SMILES | pIC50 [1] | pIC50 [2] | pIC50 [3] | pIC50 [4] | Activity [5]
1 | C[C@@H](NC(=O)c1cc(C(=O)N[C@@H](Cc2ccccc2)[C@H](O)CN)cc(N(C)S(C)(=O)=O)c1)c1ccc(F)cc1 | 5.27 | < 4.30 | 6.35 | 7.64 | 
2 | CC(C)S(=O)(=O)N(C)c1cc(C(=O)N[C@@H](Cc2ccccc2)[C@H](O)CNC2CC2)cc(C(=O)N[C@H](C)c2ccccc2)c1 | 7.60 | < 4.30 | 6.44 | 7.39 | 
3 | C[C@@H](NC(=O)c1cc(NS(C)(=O)=O)cc(C(=O)N[C@@H](Cc2ccccc2)C(O)CNC2CC2)c1)c1ccc(F)cc1 (some centres undefined) | 5.93 | < 4.30 | 6.68 | 7.20 | 
4 | C[C@@H](NC(=O)c1cc(C(=O)N[C@@H](Cc2ccccc2)[C@H](O)CNC(C)(C)C)cc(N(C)S(C)(=O)=O)c1)c1ccc(F)cc1 | 5.67 | < 4.30 |  | 7.82 | inactive
5 | CCNC[C@@H](O)[C@H](Cc1ccccc1)NC(=O)c1cc(C(=O)N[C@H](C)c2ccc(F)cc2)cc(N(C)S(C)(=O)=O)c1 | 6.40 | < 4.30 | 6.59 | 7.82 | 

Results, then the molecule that gave them:

Row | pIC50 [1] | pIC50 [2] | pIC50 [3] | pIC50 [4] | Activity [5] | SMILES
6 | 7.72 | < 5.00 | 7.16 | 8.00 |  | C[C@@H](NC(=O)c1cc(C(=O)N[C@@H](Cc2ccccc2)[C@H](O)CNC2CC2)cc(N(C)S(C)(=O)=O)c1)c1ccc(F)cc1
7 |  | < 4.30 |  |  |  | C[C@@H](NC(=O)c1cc(C(=O)N[C@@H](Cc2ccccc2)C(O)CNC2CC2)cc(N(C)S(C)(=O)=O)c1)c1ccccc1 (some centres undefined)
8 | 8.05 | < 4.30 | 6.96 | 7.85 |  | C[C@@H](NC(=O)c1cc(C(=O)N[C@@H](Cc2ccccc2)[C@H](O)CNC2CC2)cc(N(C)S(=O)(=O)N(C)C)c1)c1ccccc1

Source: ChEMBL document CHEMBL1149268, “Structure-based design of potent and selective cell-permeable inhibitors of human beta-secretase (BACE-1)” (J Med Chem, 2004)
